Assay results as given in PMC3575795 (Nucleic Acids Research, 2012).

Target: T1, MfpB (Mycobacterium fluoroquinolone resistance protein B) (Mycolicibacterium smegmatis, UniProt A0QSX9)
T1 sequence (A0QSX9 1-193): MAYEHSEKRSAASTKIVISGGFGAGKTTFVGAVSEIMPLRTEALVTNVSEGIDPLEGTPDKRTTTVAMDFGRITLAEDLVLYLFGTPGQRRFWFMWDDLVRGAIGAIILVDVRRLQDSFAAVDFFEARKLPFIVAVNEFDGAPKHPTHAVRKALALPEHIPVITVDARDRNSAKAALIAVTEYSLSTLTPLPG
Experiment: isothermal titration calorimetry
Assay type: binding

| Kd [nM] | SMILES |
| --- | --- |
| 10.5 ± 2.9 | Nc1nc2c(ncn2[C@@H]2O[C@H](COP(=O)(O)OP(=O)(O)O)[C@@H](O)[C@H]2O)c(=O)[nH]1 [GDP] |
| 11.8 ± 3.2 | Nc1nc2c(ncn2[C@@H]2O[C@H](COP(=O)(O)OP(=O)(O)OP(O)(O)=S)[C@@H](O)[C@H]2O)c(=O)[nH]1 [GTP-γ-S] |
